Measurements taken from patent US5985897A, “Benzothiphene compounds, intermediates, compositions, and methods” (priority 1997, dated 1999).

Columns and labels:
Serum cholesterol = Serum cholesterol analysis in ovariectomized rats (4-day oral dosing); type: in vivo, rat (female Sprague Dawley; conditions: for Serum Cholest. % Dec. (decrease versus ovariectomized controls): daily for 4 days, * p < .05
Protocol: (§1) In the examples illustrating the methods, a postmenopausal model was used in which effects of different treatments upon circulating lipids were determined.
(§2) Seventy-five day old female Sprague Dawley rats (weight range of 200 to 225 g) were obtained from Charles River Laboratories (Portage, Mich.). The animals were either bilaterally ovariectomized (OVX) or exposed to a sham surgical procedure at Charles River Laboratories, and then shipped after one week. Upon arrival, they were housed in metal hanging cages in groups of 3 or 4 per cage and had ad libitum access to food (calcium content approximately 0.5%) and water for one week. Room temperature was maintained at 22.2°±1.70° C. with a minimum relative humidity of 40%. The photoperiod in the room was 12 hours light and 12 hours dark.
(§3) Dosing Regimen Tissue Collection. After a one week acclimation period (therefore, two weeks post-OVX) daily dosing with test compound was initiated. 17α-ethynyl estradiol or the test compound were given orally, unless otherwise stated, as a suspension in 1% carboxymethylcellulose or dissolved in 20% cyclodextrin. Animals were dosed daily for 4 days. Following the dosing regimen, animals were weighed and anesthetized with a ketamine:xylazine (2:1, V:V) mixture and a blood sample was collected by cardiac puncture. The animals were then sacrificed by asphyxiation with CO2, the uterus was removed through a midline incision, and a wet uterine weight was determined.
Cholesterol Analysis. Blood samples were allowed to clot at room temperature for 2 hours, and serum was obtained following centrifugation for 10 minutes at 3000 rpm. Serum cholesterol was determined using a Boehringer Mannheim Diagnostics high performance cholesterol assay. Briefly the cholesterol was oxidized to cholest-4-en-3-one and hydrogen peroxide. The hydrogen peroxide was then reacted with phenol and 4-aminophenazone in the presence of peroxidase to produce a p-quinone imine dye, which was read spectrophotemetrically at 500 nm. Cholesterol concentration was then calculated against a standard curve.
Data presented in Table 1 below show comparative results among ovariectomized rats, rats treated with 17α-ethynyl estradiol (EE2; an orally available form of estrogen), and rats treated with certain compounds of the instant invention. […] This uterine response to estrogen is well recognized in the art.
The data presented in Table 1 below reflects the response of 5 to 6 rats per treatment.

Eosinophil peroxidase = test system: Eosinophil peroxidase; design: species or system rat (female Sprague Dawley, ovariectomized); conditions: rat, in vivo
Source text: as §2
Dosing Regimen Tissue Collection. […] The animals were then sacrificed by asphyxiation with CO2, the uterus was removed through a midline incision, and a wet uterine weight was determined.
Uterine Eosinophil Peroxidase (EPO) Assay. […] Upon addition of 0.01% hydrogen peroxide and 10 mM O-phenylenediamine (final concentrations) in Tris buffer, increase in absorbance was monitored for one minute at 450 nm. […] The maximal velocity of a 15 second interval was determined over the initial, linear portion of the reaction curve.
As is expressed in the data below, estrogenicity also was assessed by evaluating the adverse response of eosinophil infiltration into the uterus. […]

femur density = test: Osteoporosis Test Procedure (femur density, ovariectomized rats); type: in vivo, rat; conditions: orally administered
Protocol: Following the General Preparation Procedure, infra, the rats are treated daily for 35 days (6 rats per treatment group) and sacrificed by carbon dioxide asphyxiation on the 36th day. The 35 day time period is sufficient to allow maximal reduction in bone density, measured as described herein. At the time of sacrifice, the uteri are removed, dissected free of extraneous tissue, and the fluid contents are expelled before determination of wet weight in order to confirm estrogen deficiency associated with complete ovariectomy. […] The uteri are then placed in 10% neutral buffered formalin to allow for subsequent histological analysis. The right femurs are excised and digitilized x-rays generated and analyzed by an image analysis program (NIH image) at the distal metaphysis. The proximal aspect of the tibiae from these animals are also scanned by quantitative computed tomography. In accordance with the above procedures, compounds of the instant invention and ethynyl estradiol (EE2) in 20% hydroxypropyl β-cyclodextrin are orally administered to test animals. Distal femur metaphysis and proximal tibiae data are compared to intact and ovariectomized test animals. Results are reported as percent protection relative to ovariectomy. Ovariectomy of the test animals causes a significant reduction in femur density compared to intact, vehicle treated controls. […]

uterus = test system: uterus; design: species or system rat (female Sprague Dawley, ovariectomized); conditions: rat, in vivo, po, 0.1 mg/kg/day
Protocol: as §1, §2
as §3, with “Following the dosing regimen, animals were weighed and anesthetized with a ketamine:xylazine (2:1, V:V) mixture and a blood sample was collected by cardiac puncture.” left out, “determined. […]” for “determined.”

[1] = 0.1 mg/kg PO, negative = increase

Row | Structure (SMILES) | Serum Cholest. % Dec. (decrease versus ovariectomized controls) (Serum cholesterol; [1]) | serum cholesterol (in words) (Serum cholesterol; oral, versus ovariectomized control animals, EE2 at 0.1 mg/kg/day) | Uterine Eosinophil (Vmax), eosinophil peroxidase (Eosinophil peroxidase) | eosinophil infiltration into the uterus (in words) (Eosinophil peroxidase) | loss of femur density after ovariectomy (in words) (femur density) | uterine weight (in words) (uterus) | Serum Cholest. % Dec. (decrease versus ovariectomized controls) (Serum cholesterol; 1.0 mg/kg PO) | Serum Cholest. % Dec. (decrease versus ovariectomized controls) (Serum cholesterol; 10.0 mg/kg PO)
1 | C#C[C@]1(O)CC[C@H]2[C@@H]3CCc4cc(O)ccc4[C@H]3CC[C@@]21C [EE2, 17α-ethynyl estradiol, reference compound] | 76.6% | caused a decrease in serum cholesterol | 212.4 | substantial, expected increase in eosinophil infiltration | prevents this loss | substantially greater than the uterine weight of ovariectomized test animals | – | –
2 | CC(C)c1sc2ccccc2c1Oc1ccc(OCCN2CCCCC2)cc1.Cl [Example 4, 3-[4-[2-(1-Piperidinyl)ethoxy]phenoxy]-2-(2-propyl]benzo[b]thiophene Hydrochloride] | -27.6% | – | – | – | – | – | 19.2% | 61.6%
3 | CCCc1sc2ccccc2c1Oc1ccc(OCCN2CCCCC2)cc1.Cl [Example 7, 3-[4-[2-(1-Piperidinyl)ethoxy]phenoxy]-2-propylbenzo[b]thiophene Hydrochloride] | -11.1% | – | – | – | – | – | 41.2% | 46.6%
4 | Cl.c1ccc2c(Oc3ccc(OCCN4CCCCC4)cc3)c(C3CCCCC3)sc2c1 [Example 11, 3-[4-[2-(1-Piperidinyl)ethoxy]phenoxy]-2-cyclohexylbenzo[b]thiophene Hydrochloride] | 55.8% | – | – | – | – | – | 58.9% | 50.2%
